Earlier results in PMC8861878 (The Journal of pharmacy and pharmacology, 2020).

System: opioid receptor
Conditions: cited from earlier work

Q: With `CN1CC[C@]23c4c5ccc(O)c4O[C@H]2[C@@H](O[C@@H]2O[C@H](C(=O)O)[C@@H](O)[C@H](O)[C@H]2O)C=C[C@H]3[C@H]1C5` [M6G, morphine-6-glucuronide] as the compound, how does the “affinity with opioid receptor relative to morphine” value read?
A: Its value is 100 times.
